Source: patent publication US20100144888A1, “PESTICIDAL METHODS AND COMPOSITIONS FOR MODULATING GABA RECEPTORS” (ECOSMART TECHNOLOGIES, INC., priority 2008, published 2010)

Assays:
Mouse GABAa receptor = assay: [3H]-TBOB binding assay, mouse GABAa receptor; details: means±S.D., n=3, FIG. 1, read-out: IC50, inhibition of [3H]-TBOB binding
Procedure: (§1) 100 μl membrane was incubated for 70 minutes at room temperature with 4 nM [^3H]-TBOB, different amounts of candidate inhibitor and buffer B. The total assay buffer volume was 500 μl. After incubation, samples were filtered by glass fiber filter papers and washed with 5 ml ice-cold buffer B 3 times. Radioactivity was measured by liquid scintillation counter. Specific binding was calculated as the difference between the total ^3H bound and nonspecific ^3H bound with 100 μM picrotoxin.

House Fly GABA receptor = molecular target: T1, House Fly GABA receptor (Musca domestica, UniProt Q75NA5); assay: [3H]-TBOB binding assay, house fly GABA receptor; details: for modulation of the house fly GABA receptor: based on [3H]-TBOB-house fly GABA receptor binding assay, FIGS. 1-7; for effect on [3H]-TBOB binding activity: house fly GABA receptor, 4 nM [3H]-TBOB
T1 sequence (Q75NA5 30-576): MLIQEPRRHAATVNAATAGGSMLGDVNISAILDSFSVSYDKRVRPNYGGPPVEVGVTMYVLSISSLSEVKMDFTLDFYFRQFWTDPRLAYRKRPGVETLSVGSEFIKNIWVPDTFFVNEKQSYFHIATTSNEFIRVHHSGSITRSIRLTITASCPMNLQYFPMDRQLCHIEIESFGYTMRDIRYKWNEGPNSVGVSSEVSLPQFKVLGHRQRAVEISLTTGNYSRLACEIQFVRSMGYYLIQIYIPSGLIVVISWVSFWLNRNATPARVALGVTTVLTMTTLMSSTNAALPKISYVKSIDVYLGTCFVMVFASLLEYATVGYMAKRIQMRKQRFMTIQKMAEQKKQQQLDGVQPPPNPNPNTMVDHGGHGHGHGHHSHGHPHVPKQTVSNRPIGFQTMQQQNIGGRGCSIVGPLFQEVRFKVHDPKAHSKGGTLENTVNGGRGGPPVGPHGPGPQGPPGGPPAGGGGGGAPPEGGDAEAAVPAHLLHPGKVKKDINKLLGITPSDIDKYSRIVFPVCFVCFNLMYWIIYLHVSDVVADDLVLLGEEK
Procedure: [^3H]-TBOB Assay. In this study, five monoterpenoids (Pulegone, Thymol, Alpha-terpineol, Linalool and Carvacrol) were investigated to determine their modulation effects on [^3H]TBOB (t-butylbicycloorthobenzoate) binding to housefly GABA (Gamma-aminobutyric acid) receptors.
House fly heads (200) were homogenized in 10 mM tris-HCL buffer (pH 7.5) containing 0.25M sucrose (buffer A) with a glass homogenizer. The homogenate was centrifuged at 1,000×g for 5 minutes. The supernatant was filtered by four layers cheesecloth and centrifuged at 25,000×g for 30 minutes. The supernatant was discarded, and the pellet was homogenized and resuspended in buffer A for 30 minutes. The suspension was centrifuged at 25,000×g for 30 minutes. The final pellet was suspended in 10 mM phosphate buffer (pH 7.5) containing 300 mM NaCL (buffer B) and used directly for the assays.
as §1

[1] = tested on: insect GABA receptor (American cockroach CNS membrane microsacs); assay: GABA-activated 36Cl- uptake assay in membrane microsacs; type: biochemical, Periplaneta americana; details: for modulation of Cl- uptake: American cockroach membrane microsacs, 1 μM GABA, FIGS. 8-15; for type of modulation of the insect GABA receptor: conclusion from 36Cl- uptake results
Procedure: Cockroach CNS Membrane Microsacs Preparation: Thoracic and abdominal ganglia were removed from 30 American cockroaches and homogenized in 8.0 ml ice-cold buffer of the following composition (in millimoles per liter): NaBr, 145; KBr, 5.0; MgSO4, 1.0; Ca(NO3)2, 1.0; D-glucose, 10.0; N-2-hydroxyethylpiperazine-N′-2-ethanesulphonic acid (HEPES), 10.0 (adjusted to pH 7.5). The homogenate was centrifuged in 1.0 ml aliquots at 10,000×g for 20 min, and the pellets were re-suspended in buffer, re-centrifuged and finally re-suspended in buffer for assaying GABA-activated ^36Cl— uptake.
Cockroach GABA-activated ^36Cl— Uptake: Aliquots (200 μl) of this microsac preparation were incubated at 30° C. for 3 min after which 150 μl of a solution of ^36Cl— (0.2 μCi ml-l; specific activity 580 μCi mmol^−1) containing 1 μM GABA was added. Candidate monoterpenoids were incubated with the tissue sample for 3 min before addition of the solution containing ^36Cl— and GABA. To stop the influx of 36CL—, 2.0 m1 of ice cold buffer was added (after 10 s) and the solution was rapidly filtered over a glass-fiber filter (Whatman GF/C) followed by a 10-ml wash with ice-cold buffer. Filters, which then contained the microsacs, are placed into scintillation vials, and the scintillation cocktail was added. The vials were counted in the liquid scintillation counter, and the amount of ^36Cl— taken up into the microsacs was measured and calculated on the molar basis.

**Q.** How did the IC50 (Mouse GABAa receptor) turn out when `ClC1=C(Cl)[C@]2(Cl)[C@@H]3[C@@H]4C[C@@H]([C@H]5O[C@@H]45)[C@@H]3[C@@]1(Cl)C2(Cl)Cl` [Dieldrin] was run?
**A.** The IC50 was 3.78 ± 0.45 µM.

**Q.** Which results are given for `CC(C)=C1CC[C@@H](C)CC1=O` [Pulegone]?
**A.** modulation of the house fly GABA receptor (House Fly GABA receptor): modulated the house fly GABA receptor; effect on [3H]-TBOB binding activity (House Fly GABA receptor): potentiated the binding; modulation of Cl- uptake [1]: modulate Cl— uptake

**Q.** What does the source list for `CC1=CCC(C(C)(C)O)CC1` (stereo not drawn) [alpha-terpineol]?
**A.** modulation of the house fly GABA receptor (House Fly GABA receptor): modulated the house fly GABA receptor; effect on [3H]-TBOB binding activity (House Fly GABA receptor): lesser effects

**Q.** With `Cc1ccc(C(C)C)cc1O` [carvacrol] as the molecule, how does the “modulation of the house fly GABA receptor” value (House Fly GABA receptor) read?
**A.** Its value is “modulated the house fly GABA receptor”.

**Q.** And the “effect on [3H]-TBOB binding activity” value (House Fly GABA receptor)?
**A.** The value was “potentiated the binding”.

**Q.** And the “modulation of Cl- uptake” value [1]?
**A.** The value was “modulate Cl— uptake”.

**Q.** And the “type of modulation of the insect GABA receptor” value [1]?
**A.** Its value is “positive modulators”.

**Q.** How did the “modulation of the house fly GABA receptor” value (House Fly GABA receptor) turn out when `C=CC(C)(O)CCC=C(C)C` (stereo not shown) [linalool] was run?
**A.** Its value is “modulated the house fly GABA receptor”.

**Q.** What about the “effect on [3H]-TBOB binding activity” value (House Fly GABA receptor) of the same molecule?
**A.** The value was “potentiated the binding”.

**Q.** Which “modulation of the house fly GABA receptor” value (House Fly GABA receptor) does the source give for `Cc1ccc(C(C)C)c(O)c1` [thymol] here?
**A.** The value was “modulated the house fly GABA receptor”.

**Q.** And the “effect on [3H]-TBOB binding activity” value (House Fly GABA receptor)?
**A.** The value was “potentiated the binding”.

**Q.** And the “modulation of Cl- uptake” value [1]?
**A.** The value was “modulate Cl— uptake”.

**Q.** And the “type of modulation of the insect GABA receptor” value [1]?
**A.** Its value is “positive modulators”.
